According to ChEMBL document CHEMBL1201862, “PubChem BioAssay data set” (2004):
Where “and” joins values, the source holds several entries; their conditions need not be identical. Equal values may be shown once.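 These data come from cells grown in 96-well plates and exposed to compound for 48 hours at five concentrations. GI50 marks 50% less growth.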 Calls of active or inactive are those of the source. Rule as the data show it: active = GI50 up to about 1.1 µM and inactive = higher.

Key:
Assay in all cases: inhibition of tumour cell growth, NCI panel, 48 h
[1] = test system: SN12C
[2] = test system: SK-MEL-2
[3] = test system: UO-31
[4] = test system: NCI-H460
[5] = test system: HOP-92
[6] = test system: SR
[7] = test system: EKVX
[8] = test system: K562
[9] = test system: OVCAR-3
[10] = test system: MDA-MB-231
[11] = test system: COLO 205
[12] = test system: BT-549
[13] = test system: T47D
[14] = test system: HCT-15
[15] = test system: MDA-MB-435
[16] = test system: IGROV-1
[17] = test system: HOP-62
[18] = test system: HL-60
[19] = test system: 786-0
[20] = test system: SNB-75

| Compound | GI50 [1] | GI50 [2] | GI50 [3] | GI50 [4] | GI50 [5] | GI50 [6] | GI50 [7] | GI50 [8] | GI50 [9] | GI50 [10] | GI50 [11] | GI50 [12] | GI50 [13] | GI50 [14] | GI50 [15] | GI50 [16] | GI50 [17] | GI50 [18] | GI50 [19] | GI50 [20] |
| --- | --- | --- | --- | --- | --- | --- | --- | --- | --- | --- | --- | --- | --- | --- | --- | --- | --- | --- | --- | --- |
| c1ccc(C(NC2CCCCC2NCCNC2CCCCC2NC(c2ccccc2)(c2ccccc2)c2ccccc2)(c2ccccc2)c2ccccc2)cc1 (stereo not given) | > 100 µM (inactive) | 26.1 µM (inactive) | 20.4 µM (inactive) | 26.8 µM (inactive) | 13.9 µM (inactive) | 81.7 µM (inactive) | 87.9 µM (inactive) | 44.5 µM (inactive) | 39.5 µM (inactive) | > 100 µM (inactive) | > 100 µM (inactive) | 17.5 µM (inactive) | 11.7 µM (inactive) | > 100 µM | 17.7 µM (inactive) | 26.8 µM (inactive) | 34.1 µM (inactive) |  |  |  |
| CC[C@@]1(O)C(=O)OCc2c1cc1n(c2=O)Cc2c-1nc1ccccc1c2/C=N\NC(=O)C(N)CO (stereo not given in full) | 0.182 µM (active) | 32.4 µM (inactive) | 0.667 µM (active) | 0.184 µM (active) | 1.87 µM (inactive) | 0.0386 µM (active) | 18.8 µM (inactive) | 1.05 µM (active) | 16.2 µM (inactive) | 28.4 µM (inactive) | 32.1 µM (inactive) | 2.56 µM (inactive) | 0.239 µM (active) | 4.1 µM | 4.25 µM (inactive) | 7.59 µM (inactive) | 0.201 µM (active) | 0.335 µM (active) | 0.34 µM (active) |  |
| N#CC1(C#N)NC(c2ccccc2)C(C#N)(C#N)NC1c1ccccc1 (stereo not given) | > 100 µM (inactive) | > 100 µM (inactive) | > 100 µM (inactive) | > 100 µM (inactive) | 86.7 µM (inactive) |  | > 100 µM (inactive) | > 100 µM (inactive) | > 100 µM (inactive) | 25.9 µM (inactive) | > 100 µM (inactive) | > 100 µM (inactive) | > 100 µM (inactive) | > 100 µM | > 100 µM (inactive) | > 100 µM (inactive) | > 100 µM (inactive) | 41.1 µM (inactive) | > 100 µM (inactive) | > 100 µM (inactive) |
| CCCCCC/C=C\CCCCCCCCCc1c(O)c(OC)cc(O)c1CN(C)C | 4.83 µM (inactive) | 20.7 µM (inactive) | 4.21 µM (inactive) | 3.67 µM (inactive) |  | 0.692 µM (active) | 10.7 µM (inactive) | 1.73 µM (inactive) | 6.35 µM (inactive) | 14.5 µM (inactive) | 1.92 µM (inactive) | 9.2 µM (inactive) | 1.76 µM (inactive) | 3.01 µM | 6.64 µM (inactive) | 3.18 µM (inactive) | 12.8 µM (inactive) | 1.6 µM (inactive) | 1.7 µM (inactive) | 2.79 µM (inactive) |
| O=C1C=C(C2=CC(=O)C(=O)c3ccccc32)c2ccccc2C1=O | 27 µM (inactive) | 19.5 µM (inactive) | 6.14 µM (inactive) |  | 11.3 µM (inactive) |  | 34.8 µM (inactive) | 3.3 µM (inactive) | 2.58 µM (inactive) | 15.6 µM (inactive) | 18 µM (inactive) | 46.6 µM (inactive) | 19.5 µM (inactive) | 11.8 µM | 1.93 µM (inactive) | 28.8 µM (inactive) | 24.2 µM (inactive) | 3.03 µM (inactive) | 13 µM (inactive) | 22.4 µM (inactive) |
| Cc1ccc(CC2(OCCN(C)C)CCC(C(C)(C)C)CC2)cc1 (stereo not given) | 4.8 µM (inactive) | 1.97 µM (inactive) | 3.49 µM (inactive) | 1.99 µM (inactive) |  | 2.04 µM (inactive) | 6.14 µM (inactive) | 1.71 µM (inactive) | 9.68 µM (inactive) | 6.01 µM (inactive) | 2.05 µM (inactive) | 4.61 µM (inactive) | 2.87 µM (inactive) | 3.86 µM | 2.37 µM (inactive) | 6.5 µM (inactive) | 3.01 µM (inactive) | 0.767 µM (active) | 1.99 µM (inactive) | 6.81 µM (inactive) |
| CCN(CC)CCNc1ccc2nnn3c4ccc(OC(C)=O)cc4c(=O)c1c23 | 2.26 µM (inactive) | 14.8 µM (inactive) | 1.63 µM (inactive) | 0.243 µM (active) | 3.9 µM (inactive) | 0.706 µM (active) | 5.56 µM (inactive) |  | 7.96 µM (inactive) | 2.65 µM (inactive) | 2.45 µM (inactive) | 13.4 µM (inactive) | 15.8 µM (inactive) | 1.46 µM | 5.15 µM (inactive) | 0.224 µM (active) | 1.98 µM (inactive) |  |  |  |
| Nc1ccc(Nc2cc(=O)[nH]c(=O)[nH]2)cc1Cl | > 100 µM (inactive) | > 100 µM (inactive) | > 100 µM (inactive) | > 100 µM (inactive) | > 100 µM (inactive) | > 100 µM (inactive) |  | > 100 µM (inactive) | > 100 µM (inactive) | > 100 µM (inactive) | > 100 µM (inactive) | > 100 µM (inactive) | > 100 µM (inactive) | > 100 µM | > 100 µM (inactive) |  |  | > 100 µM (inactive) | > 100 µM (inactive) |  |
| Cc1cc(NC(=O)C(=O)Cc2cnc3ccccc3n2)c(S(=O)(=O)O)cc1Cl | > 100 µM (inactive) | > 100 µM (inactive) | > 100 µM (inactive) | > 100 µM (inactive) | > 100 µM (inactive) |  | > 100 µM (inactive) | > 100 µM (inactive) | > 100 µM (inactive) | > 100 µM (inactive) | > 100 µM (inactive) | > 100 µM (inactive) | > 100 µM (inactive) | > 100 µM | > 100 µM (inactive) | > 100 µM (inactive) |  | > 100 µM (inactive) | > 100 µM (inactive) | > 100 µM (inactive) |
| CCOC(=O)C1=CC(C)(C(=O)OCC)Nc2c(nc(SC)n(C)c2=O)N1 (stereo not given) | > 10 µM (inactive) | > 10 µM (inactive) | > 10 µM (inactive) | > 10 µM (inactive) | > 10 µM (inactive) |  | > 10 µM (inactive) | > 10 µM (inactive) | > 10 µM (inactive) | > 10 µM (inactive) | > 10 µM (inactive) | > 10 µM (inactive) | > 10 µM (inactive) | > 10 µM | > 10 µM (inactive) | > 10 µM (inactive) | > 10 µM (inactive) |  | > 10 µM (inactive) | > 10 µM (inactive) |
| CC(=O)NCCC1CNc2ccccc21 (stereo not given) | > 100 µM (inactive) | > 100 µM (inactive) | > 100 µM (inactive) | > 100 µM (inactive) | > 100 µM (inactive) | > 100 µM (inactive) | > 100 µM (inactive) | > 100 µM (inactive) | > 100 µM (inactive) | > 100 µM (inactive) | > 100 µM (inactive) | > 100 µM (inactive) | > 100 µM (inactive) | > 100 µM | > 100 µM (inactive) | > 100 µM (inactive) |  | > 100 µM (inactive) |  |  |
| O=S(=O)(O)c1cc(O)c2c(O)c(/N=N/c3cccc4ccccc34)c(S(=O)(=O)O)cc2c1 | > 100 µM (inactive) | > 100 µM (inactive) | > 100 µM (inactive) |  | > 100 µM (inactive) | > 100 µM (inactive) | > 100 µM (inactive) | > 100 µM (inactive) | > 100 µM (inactive) | > 100 µM (inactive) | > 100 µM (inactive) | > 100 µM (inactive) | > 100 µM (inactive) | > 100 µM | > 100 µM (inactive) | > 100 µM (inactive) | > 100 µM (inactive) |  | > 100 µM (inactive) | > 100 µM (inactive) |
| COc1ccc(-c2nc(SC)n(C3OC(COC(C)=O)C(OC(C)=O)C(OC(C)=O)C3OC(C)=O)c(=O)c2C#N)cc1 (stereo not given) | 39.7 µM (inactive) | > 100 µM (inactive) and 73.3 µM (inactive) | 27 µM (inactive) and 25.6 µM (inactive) |  |  | > 100 µM (inactive) | > 100 µM (inactive) | > 100 µM (inactive) |  | > 100 µM (inactive) | > 100 µM (inactive) | > 100 µM (inactive) | 95.7 µM (inactive) | > 100 µM | > 100 µM (inactive) | > 100 µM (inactive) |  | > 100 µM (inactive) | 64.3 µM (inactive) |  |
| N#CC(/N=N/c1ccc(Cl)cc1)c1nc2ccccc2o1 (stereo not given) | > 100 µM (inactive) | 28.7 µM (inactive) | > 100 µM (inactive) | > 100 µM (inactive) | 17.7 µM (inactive) | 43.7 µM (inactive) | 34.5 µM (inactive) | 15.5 µM (inactive) | 37.9 µM (inactive) | 37 µM (inactive) | 22.3 µM (inactive) | 32.6 µM (inactive) | 7.71 µM (inactive) | > 100 µM | > 100 µM (inactive) |  | 38.3 µM (inactive) | 33.7 µM (inactive) | 62.2 µM (inactive) |  |
| CNCCN[C@@H]1c2cc3c(cc2[C@@H](c2cc(OC)c(O)c(OC)c2)[C@H]2C(=O)OC[C@@H]21)OCO3 | 0.0738 µM (active) | 0.44 µM (active) | 1.32 µM (inactive) | < 0.01 µM (active) |  | 0.0122 µM (active) | 2.23 µM (inactive) | 0.177 µM (active) | 0.968 µM (active) | 0.37 µM (active) | 1.23 µM (inactive) | 0.207 µM (active) | 0.138 µM (active) | 3.21 µM | 1.66 µM (inactive) | 0.418 µM (active) | 0.141 µM (active) | < 0.016 µM (active) | 0.144 µM (active) | 0.274 µM (active) |
| CC1(C)OC2C(CO)OC(n3ccc(N)nc3=O)C2O1 (stereo not given) | > 100 µM (inactive) | > 100 µM (inactive) | > 100 µM (inactive) | > 100 µM (inactive) | > 100 µM (inactive) | > 100 µM (inactive) | > 100 µM (inactive) | > 100 µM (inactive) | > 100 µM (inactive) | > 100 µM (inactive) | > 100 µM (inactive) | > 100 µM (inactive) | > 100 µM (inactive) | > 100 µM | > 100 µM (inactive) | > 100 µM (inactive) | > 100 µM (inactive) | > 100 µM (inactive) | > 100 µM (inactive) |  |
